According to US11660351B2, “Antibody drug conjugates (ADCs) having enzymatically cleavable groups” (Bayer Pharma Aktiengesellschaft, priority 2016, dated 2023):

Columns and labels:
NCI-H292 = assay: Cytotoxic effect, MTT assay, NCI-H292 cells; type: cell-based; conditions: Homo sapiens, Table 2, metabolites
Caco-2 cells = assay: Caco-2 flux assay for cell permeability; type: in vitro ADME; conditions: Caco-2, 2 h incubation
Description: The cell permeability of a substance can be investigated by means of in vitro testing in a flux assay using Caco-2 cells [M. D. Troutman and D. R. Thakker, Pharm. […] For this purpose, the cells were cultured for 15-16 days on 24-well filter plates. For the determination of permeation, the respective test substance was applied in a HEPES buffer to the cells either apically (A) or basally (B) and incubated for 2 hours. After 0 hours and after 2 hours, samples were taken from the cis and trans compartments. The samples were separated by HPLC (Agilent 1200, Böblingen, Germany) using reverse phase columns. The HPLC system was coupled via a Turbo Ion Spray Interface to a Triple Quadropole mass spectrometer API 4000 (AB SCIEX Deutschland GmbH, Darmstadt, Germany).

SK-HEP-1 = assay: Cytotoxic effect, MTT assay, SK-HEP-1 cells; type: cell-based; conditions: Homo sapiens, SK-HEP1; Table 2, metabolites
legumain = target: T1, legumain (Homo sapiens, UniProt Q99538); assay: Legumain assay (enzymatic cleavage); type: biochemical; conditions: recombinant human legumain, rhLegumain 1 ng/μl, substrate 3 μM, pH 5.0, read-out: half-life of legumain-mediated cleavage to the target compound (converted)
T1 construct: purchased R&D Systems 2199-CY
T1 sequence (Q99538 18-323 limits assumed): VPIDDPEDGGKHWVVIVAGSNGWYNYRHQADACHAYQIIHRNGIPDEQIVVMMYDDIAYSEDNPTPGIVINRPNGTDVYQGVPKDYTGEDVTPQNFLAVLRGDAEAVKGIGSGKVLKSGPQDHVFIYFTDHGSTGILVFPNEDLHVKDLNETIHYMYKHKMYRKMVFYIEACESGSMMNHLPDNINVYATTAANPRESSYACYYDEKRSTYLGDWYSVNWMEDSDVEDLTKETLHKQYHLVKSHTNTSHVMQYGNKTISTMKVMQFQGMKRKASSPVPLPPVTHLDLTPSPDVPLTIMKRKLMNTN
Description: The legumain assay was conducted with recombinant human enzyme. The rhlegumain enzyme solution (catalogue #2199-CY, R&D Systems) was diluted in 50 mM Na acetate buffer/100 mM NaCl, pH 4.0 to the desired concentration and preincubated at 37° C. for 2 h. rhLegumain was then adjusted to a final concentration of 1 ng/μl in 50 mM MES buffer, 250 mM NaCl, pH 5.0. For every legumain-cleavable prodrug to be examined, a mixture was made up in a micro reaction vessel (0.5 ml, from Eppendorf). For this purpose, the substrate solution was adjusted to the desired concentration (double concentration) with 50 mM MES buffer, 250 mM NaCl, pH 5.0. For the kinetic measurement of the enzymatic reaction, 250 μl of the legumain solution were first initially charged and the enzyme reaction was started by adding 250 μl of the substrate solution (final concentration: single concentration; 3 μM). At various points in time, 50 μl samples were taken. Immediately, 100 μl of ice-cold methanol were added to this sample in order to stop the enzymatic reaction, and the sample was then frozen at −20° C. The times selected for sampling were after 0.5 h, 1 h, 3 h and 24 h. The samples were then analysed by means of RP-HPLC analysis and by LC-MS analysis. The determination of the toxophore released enabled the determination of the half-life t1/2 of the enzymatic reaction. […]

KPL-4 = assay: Cytotoxic effect, MTT assay, KPL-4 cells; type: cell-based; conditions: Homo sapiens, KPL4; Table 2, metabolites
Description: (§1) After 48 h, the medium was replaced. […] The suspension cells were counted and sown into a 96-well culture plate with white bottom (from Costar #3610) (#3610) (MOLM-13: 2000 cells/well; NB4: 7000 cells/well; MV-4-11: 5000 cells/well in a total volume of 100 μl). […] After 96 h, the cell proliferation was detected using the MTT assay (ATCC, Manassas, Va., USA, catalogue No. 30-1010K). To this end, the MTT reagent was incubated with the cells for 4 h, followed by lysis of the cells overnight by addition of the detergent. The dye formed was detected at 570 nm (Infinite M1000 pro, Tecan). The measured data were used to calculate the IC50 of the growth inhibition using the DRC (dose response curve). The proliferation of cells which were not treated with test substance but were otherwise identically treated was defined as the 100% figure.

MOLM-13 = assay: Cytotoxic effect, MTT assay, MOLM-13 cells; type: cell-based; conditions: Homo sapiens, Table 2, metabolites
Description: as §1, with “μl). After 6 hours of incubation at 37° C. and 5% carbon dioxide, the medium was changed and the antibody-drug conjugates or metabolites were added by pipette in 10 μl of culture medium in concentrations of 10^−5M to 10^−13M to the cells (triplicates) in 90 μl.” for “μl).”

Row | SMILES | IC50 (NCI-H292) [nM] | Papp (B-A) (Caco-2 cells) [×10⁻⁶ cm/s] | IC50 (SK-HEP-1) [nM] | half-life at 3 μM (legumain) [min] | IC50 (KPL-4) [nM] | IC50 (MOLM-13) [nM]
1 | CC(C)(C)[C@H](c1cc(-c2cc(F)ccc2F)cn1Cc1ccccc1)N(CC[C@H](N)C(=O)NCCC(=O)N[C@H](CCC(=O)O)C(=O)O)C(=O)CO [Example M1, N-{(2S)-2-Amino-4-[{(1R)-1-[1-benzyl-4-(2,5-difluorophenyl)-1H-pyrrol-2-yl]-2,2-dimethylpropyl}(glycoloyl)amino]butanoyl}-beta-alanyl-D-glutamic acid] | 174 | 0.27 | 19.6 |  |  | 
2 | CNC(=O)[C@H](CCN(C(=O)CO)[C@@H](c1cc(-c2cc(F)ccc2F)cn1Cc1ccccc1)C(C)(C)C)NC(=O)[C@H](CC(N)=O)NC(=O)[C@H](C)NC(=O)[C@H](C)NC(=O)Cc1ccncc1 [Model compound A, N-(Pyridin-4-ylacetyl)-L-alanyl-L-alanyl-N^1-[(2S)-4-[{(1R)-1-[1-benzyl-4-(2,5-difluorophenyl)-1H-pyrrol-2-yl]-2,2-dimethylpropyl}(glycoloyl)amino]-1-(methylamino)-1-oxobutan-2-yl]-L-aspartamide] |  |  |  | 24 |  | 
3 | CC(C)(C)[C@H](c1cc(-c2cc(F)ccc2F)cn1Cc1ccccc1)N(CCCN)C(=O)CO [Reference Example R3M, N-(3-Aminopropyl)-N-{(1R)-1-[1-benzyl-4-(2,5-difluorophenyl)-1H-pyrrol-2-yl]-2,2-dimethylpropyl}-2-hydroxyacetamide] | 0.27 |  | 7.62 |  | 0.257 | 0.0669
